Tests used:
Format in all cases: cell-based, mouse
SP-1 cells [1] = test: Cornified envelope formation in SP-1 cells; conditions: 1.4 mM Ca2+ medium, 3 days
Description: (§1) Cornified Envelope Quantitation. Keratinocytes were analyzed for cornified envelope formation as described (Nagae, S. et al, “Effect of retinoic acid on cornified envelope formation: difference between spontaneous envelope formation in vivo or in vitro and expression of envelope competence,” J. Invest., Dermatol., 89: 51–58, 1987), with minor modifications. Floating cells were harvested by collecting culture medium from each 60 mm dish and combining with two washes using phosphate-buffered saline without Ca^2+ and Ms^+2 (PBS). Cells were pelleted for 5 minutes at 1000 rpm in a benchtop clinical centrifuge and resuspended in 100 μl of lysis buffer (2% sodium dodecyl sulfate (SDS) and 20 mM dithiothreitol in PBS). Attached cells were harvested in 250 μl lysis buffer, combined with the preparation of floating cells, and incubated at 95° for 10 minutes. The non-solubilized, intact cornified envelopes, characteristic of terminally differentiated keratinocytes, were counted using a hemocytometer (Nagae, S. et al, “Effect of retinoic acid on cornified envelope formation: difference between spontaneous envelope formation in vivo or in vitro and expression of envelope competence,” J. Invest. Dermatol., 89: 51–58, 1987).
(§2) Cornified envelope formation was also determined in cultures of staurosporine-treated neoplastic cells. […]

308 cells [2] = test: Cornified envelope formation in 308 cells; conditions: 1.4 mM Ca2+ medium, 3 days
Description: as §1, §2

SP-1 cells [3] = test: Epidermal transglutaminase activity in neoplastic keratinocytes; conditions: 24 hours
primary keratinocytes [4] = test: Morphological changes and detachment of primary keratinocytes; conditions: for alteration of cell morphology first detectable after: 10 nM staurosporine or 160 nM TPA, 0.05 mM Ca2+ medium
40 kD protein (pp40) = test: 32P phosphoprotein analysis in digitonin-permeabilized keratinocytes; conditions: for phosphorylation of band at about 40 kD (pp40): 160 nM TPA or 10 nM staurosporine
Description: Cell Permeabilization and ^32P-Labelled Phosphoprotein Analysis. Primary mouse keratinocytes were permeabilized with digitonin to facilitate uptake of ^32P-ATP essentially as described (Erusalimsky, J. D. et al, “Diacylglycerols, and phorbol esters rapidly stimulate the phosphorylation of an Mr=80,000 protein kinase C substrate in permeabilized 3T3 cells,” J. Biol. Chem., 263: 19188–19194, 1988). To first assess the efficacy of permeabilization at different digitonin concentrations, 5–10 μg/ml of the DNA-binding fluorochrome propidium iodide (Jones, K. H. et al, “An improved method to determine cell viability by simultaneous staining with fluorescein diacetate-propidium iodide,” J. Histochem. Cytochem., 33: 77–79, 1985) was added to permeabilization buffer instead of labelled ATP. After incubation at 37° for 1–3 minutes, the buffer was removed and cells washed 3–4 times with PBS prior to fluorescence microscopy. […] Following ^32P-labelling, cells were immediately harvested and lysates subject to SDS/8.5% polyacrylamide gel electrophoresis. Approximate molecular weights were determined using pre-stained protein markers (Amersham, Arlington Heights, Ill.). Dried gels were exposed to Kodak X-Omat AR film at −70° prior to development.
Cells were harvested immediately and proteins separated by SDS/PAGE. Dried gels were exposed to Kodak X-Omat AR film at −70° for 12–24 hours prior to development.

primary keratinocytes [5] = test: Epidermal transglutaminase activity in primary keratinocytes; conditions: 9 hours, 1.4 mM Ca2+ medium; for increase in epidermal transglutaminase activity: 8 day old cultures
Description: Enzyme Assays. Activity of epidermal transglutaminase was determined by measuring cross-linking of ^3H-putrescine to dimethylcasein (20). Cell lysates were incubated at […] for 10 minutes to inactivate tissue transglutaminase. Ornithine decarboxylase activity of cell lysates was determined by quantifying release of ^14CO2 from ^14C-ornithine (Sako, T. et al, “Partial parallelism and partial blockade by bryostatin 1 of effects of phorbol ester tumor promoters on primary mouse epidermal cells,” Cancer Res., 47: 5445–5450, 1987).
Epidermal transglutaminase activity is elevated in terminally differentiating keratinocytes both in vivo and in vitro. […] Control cultures (0 nM dose) were treated with 0.1% DMSO. Each point is the average of duplicate dishes with the range indicated by error bars.

SP-1 cells [6] = test: Morphological differentiation of SP-1 neoplastic keratinocyte cell line; conditions: for morphological changes: 24 hours, 10 nM staurosporine or 160 nM TPA
308 cells [7] = test: Morphological differentiation of 308 neoplastic keratinocyte cell line; conditions: for morphological changes: 24 hours, 10 nM staurosporine or 160 nM TPA
[8] = doses ranging from 1.6 nM to 16 uM
[9] = morphological response to staurosporine

In the case of `CCCCCCCCCCCCCC(=O)O[C@@H]1[C@@H](C)[C@@]2(O)[C@@H](C=C(CO)C[C@]3(O)C(=O)C(C)=C[C@@H]23)[C@H]2C(C)(C)[C@]12OC(C)=O` [TPA, 12-0-tetradecanoylphorbol-13-acetate, reference compound], the cornified envelope formation (SP-1 cells [1]; 160 nM TPA) is reported as “not induced”, the cornified envelope formation (308 cells [2]; 160 nM TPA) is reported as “not induced” and the “effect on epidermal transglutaminase activity” value (SP-1 cells [3]; any dose ranging from 10 pM to 10 μM) is reported as “no detectable effect”. The “alteration of cell morphology first detectable after” value (primary keratinocytes [4]) was 20 minutes, the “cells rounded-up and detached from the substrate” value (primary keratinocytes [4]; 160 nM TPA, after 24 hours) was “about 50%” and the “phosphorylation of band at about 40 kD (pp40)” value (40 kD protein (pp40); 3 minutes) was “enhanced phosphorylation”. For the same compound, the “increase in epidermal transglutaminase activity” value (primary keratinocytes [5]; 100 and 1000 nM) was 5 fold, the morphological changes (SP-1 cells [6]) was “does not appreciably alter the appearance” and the inducing morphological differentiation (SP-1 cells [6]; [8]) was “ineffective”. The morphological changes (308 cells [7]) was “does not appreciably alter the appearance” and the inducing morphological differentiation (308 cells [7]; [8]) was “ineffective”.
`CN[C@@H]1C[C@H]2O[C@@](C)([C@@H]1OC)n1c3ccccc3c3c4c(c5c6ccccc6n2c5c31)C(=O)NC4` [staurosporine] was tested, and the “induction of cornified envelopes” value (SP-1 cells [1]; 10 nM staurosporine) was 10 fold, the “induction of cornified envelopes” value (308 cells [2]; 10 nM staurosporine) was 60 fold and the “maximum induction of epidermal transglutaminase activity” value (SP-1 cells [3]; 100 nM, 5 day old SP-1 cells) was 50 fold. For the same compound, the “alteration of cell morphology first detectable after” value (primary keratinocytes [4]) was 20 minutes, the “cells detached from the substrate” value (primary keratinocytes [4]; 10 nM staurosporine, 24 hours) was “nearly all cells” and the “treatment time required for a maximal response” value (shortened to “treatment time required”) (primary keratinocytes [4]; [9]) was 24 h. For the same compound, the overall protein phosphorylation (40 kD protein (pp40); 10 nM staurosporine, 3 minutes) was “reduction in overall protein phosphorylation”, the “effect of co-exposure on TPA-mediated phosphorylation of pp40” value (40 kD protein (pp40); 160 nM TPA and 10 nM staurosporine) was “blocked the TPA-mediated phosphorylation” and the “phosphorylation of band at about 40 kD (pp40)” value (40 kD protein (pp40); 3 minutes) was “not detected”. For the same compound, the “inducing phosphorylation of pp40” value (40 kD protein (pp40); additional doses ranging from 0.1 to 5 nM) was “ineffective”, the “increase in epidermal transglutaminase activity” value (primary keratinocytes [5]; 10 nM) was 4 fold and the “dose to which induction of transglutaminase activity is restricted” value (primary keratinocytes [5]) was 10 nM. For the same compound, the morphological changes (SP-1 cells [6]) was “morphological changes similar to those seen in primary cells”, the “treatment time required” value (SP-1 cells [6]; [9]) was “at least 48 hours” and the morphological changes (308 cells [7]) was “morphological changes similar to those seen in primary cells”. For the same compound, the “treatment time required” value (308 cells [7]; [9]) was “at least 48 hours”.

— US7056908B2, “Pharmaceutical compositions and methods for preventing skin tumor formation and causing regression of existing tumors” (priority 1991, dated 2006)
